Measured values reported in EP4745132A1 (Technoderma Medicines Inc., priority 2023, dated 2025).

Assays:
[1] = biological target: T1, NUAK1 (Homo sapiens, UniProt O60285); assay: Enzyme activity inhibition test, kinase activity assay based on P81 filter paper binding hot-spot technique; assay type: biochemical; details: final concentration of NUAK1 10 nM; 20 µM CHKtide peptide substrate; 33P-labeled ATP; 2 hours at room temperature; read-out: IC50 (nM) of Test Compounds against NUAK1
T1 sequence (O60285 1-661): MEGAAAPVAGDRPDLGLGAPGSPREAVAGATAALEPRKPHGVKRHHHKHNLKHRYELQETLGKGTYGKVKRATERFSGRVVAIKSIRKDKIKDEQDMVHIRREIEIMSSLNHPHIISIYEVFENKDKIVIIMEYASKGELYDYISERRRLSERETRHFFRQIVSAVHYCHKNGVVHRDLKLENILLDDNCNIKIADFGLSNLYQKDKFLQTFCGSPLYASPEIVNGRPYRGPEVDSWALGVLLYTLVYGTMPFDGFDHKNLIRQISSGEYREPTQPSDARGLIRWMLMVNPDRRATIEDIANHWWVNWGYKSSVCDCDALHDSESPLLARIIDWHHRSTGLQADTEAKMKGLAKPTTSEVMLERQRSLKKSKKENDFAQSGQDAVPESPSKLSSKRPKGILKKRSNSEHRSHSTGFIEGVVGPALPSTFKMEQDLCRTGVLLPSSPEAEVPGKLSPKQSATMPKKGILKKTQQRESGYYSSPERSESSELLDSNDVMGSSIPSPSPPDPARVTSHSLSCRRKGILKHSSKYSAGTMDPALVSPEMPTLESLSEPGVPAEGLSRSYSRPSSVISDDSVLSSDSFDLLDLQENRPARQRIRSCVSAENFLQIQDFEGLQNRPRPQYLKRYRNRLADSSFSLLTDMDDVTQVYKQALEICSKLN
Procedure: (§1) Test Example: Enzyme Activity Inhibition Test of NUAK1/NUAK2 Kinase Inhibitors
(§2) The inhibitory activity of the pyrimidinamine small molecules involved in the present application against NUAK1 and NUAK2 kinases was determined using a kinase activity assay based on the P81 filter paper binding hot-spot technique (Nat Biotechnol. 2011, 29:1039). A brief description is as follows:
(§3) The assay buffer system contained 20 mM Hepes (pH 7.5), 10 mM MgCl2, 1 mM EGTA, 0.01% Brij35 (L23 polyoxyethylene lauryl ether), 0.02 mg/mL BSA (bovine serum albumin), 0.1 mM Na3VO4, 2 mM DTT, and 1% DMSO.
(§4) • 1. A 20 µM substrate solution was prepared with freshly prepared test buffer and CHKtide peptide fragments (Sanchez Y. Science. 1997, 277: 1497-1501) were used as a substrate. • 2. Kinases were added and mixed gently (a final concentration of NUAK1 was 10 nM; and a final concentration of NUAK2 was 50 nM). • 3. Test compounds dissolved in 100% DMSO were each added to the above kinase reaction mixture solution via Acoustic Droplet Ejection (Echo550; nanoliter) and the mixture was incubated for 5 minutes at room temperature. • 4. ^33P-labeled ATP (a ratio of unlabeled ATP to labeled ATP was 25:1 or 2.5:1) was added. • 5. The mixture was incubated for 2 hours at room temperature. • 6. Kinase activity was tested using the P81 filter paper combined with hotspot technology.
(§5) The IC50 values of the test compounds against NUAK1/NUAK2 were calculated according to the above test. For specific results, see Table 1.
(§6) The IC50 values were calculated by using a formula derived from sigmoidal dose-response curve (variable slope): Y = Bottom + (Top−Bottom)/(1+10^(∧)((LogEC50−X)*Slope, [formula] where X is the logarithm of compound concentration, Y is the response (inhibition rate of kinase activity), and Y rises from bottom to top along the sigmoidal curve as the concentration increases. Table 1: IC50 (nM) of Test Compounds of the Present Application against NUAK1/NUAK2

[2] = biological target: T2, NUAK2 (Homo sapiens, UniProt Q9H093); assay: as above; assay type: biochemical; details: final concentration of NUAK2 50 nM; 20 µM CHKtide peptide substrate; 33P-labeled ATP; 2 hours at room temperature; read-out: IC50 (nM) of Test Compounds against NUAK2
T2 sequence (Q9H093 1-628): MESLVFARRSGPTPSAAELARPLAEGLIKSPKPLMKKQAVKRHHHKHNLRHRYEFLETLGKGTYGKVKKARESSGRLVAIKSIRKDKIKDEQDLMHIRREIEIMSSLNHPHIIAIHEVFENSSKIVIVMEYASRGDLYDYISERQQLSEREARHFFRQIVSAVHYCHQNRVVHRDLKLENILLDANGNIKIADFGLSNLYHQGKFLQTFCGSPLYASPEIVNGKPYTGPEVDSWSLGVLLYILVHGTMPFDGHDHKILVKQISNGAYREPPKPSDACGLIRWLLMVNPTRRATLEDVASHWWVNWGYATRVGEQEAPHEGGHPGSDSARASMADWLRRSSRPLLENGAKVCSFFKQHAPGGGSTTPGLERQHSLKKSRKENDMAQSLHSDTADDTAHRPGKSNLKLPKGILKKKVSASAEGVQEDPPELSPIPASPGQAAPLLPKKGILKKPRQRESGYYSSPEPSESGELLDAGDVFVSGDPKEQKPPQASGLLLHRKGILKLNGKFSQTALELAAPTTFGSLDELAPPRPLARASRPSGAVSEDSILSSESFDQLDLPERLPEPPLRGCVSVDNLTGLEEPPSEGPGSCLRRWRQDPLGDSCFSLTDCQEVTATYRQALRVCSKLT
Procedure: as §1, §2, §3, §4, §5, §6

SMILES | IC50 [1] [nM] | IC50 [2] [nM]
CN1CCN(c2ccc(Nc3ncc(Cl)c(N4CCC(C)(NC(=O)[C@@H]5CC5(F)F)CC4)n3)cc2)CC1 [TDM-181174, (S)-N-(1-(5-chloro-2-((4-(4-methylpiperazin-1-yl)phenyl)amino)pyrimidin-4-yl)-4-methylpiperidin-4-yl)-2,2-difluorocyclopropanecarboxamide] | 0.46 | 1.44
CN1CCN(c2ccc(Nc3nccc(N4CCC(C)(NS(=O)(=O)C5CC5)CC4)n3)cc2)CC1 [TDM-181165, N-(4-methyl-1-(2-((4-(4-methylpiperazin-1-yl)phenyl)amino)pyrimidin-4-yl)piperidin-4-yl)cyclopropanesulfonamide] | 39 | 72
COc1cc(N2CCN(C)CC2)ccc1Nc1ncc(Cl)c(N2CCC(C)(NS(=O)(=O)C3CC3)CC2)n1 [TDM-181175, N-(1-(5-chloro-2-((2-methoxy-4-(4-methylpiperazin-1-yl)phenyl)amino)pyrimidin-4-yl)4-methylpiperidin-4-yl)cyclopropanesulfonamide] | 20 | 13
CC1(NC(=O)[C@@H]2CC2(F)F)CCN(Cc2nc(Nc3cnn(C4CCNCC4)c3)ncc2Cl)CC1 [TDM-181186, (S)-N-(1-((5-chloro-2-((1-(piperidin-4-yl)-1H-pyrazol-4-yl)amino)pyrimidin-4-yl)methyl)-4-methylpiperidin-4-yl)-2,2-difluorocyclopropane-1-carboxamide] | 959 | 
CN1CCN(c2ccc(Nc3ncc(Cl)c(N4CCC(C)(NS(=O)(=O)C5CC5)CC4)n3)cc2)CC1 [TDM-181173, N-(1-(5-chloro-2-((4-(4-methylpiperazin-1-yl)phenyl)amino)pyrimidin-4-yl)-4-methylpiperidin-4-yl)cyclopropanesulfonamide] | 1 | 3
CC1(NC(=O)[C@@H]2CC2(F)F)CCN(c2ccnc(Nc3cnn(C4CCNCC4)c3)n2)CC1 [TDM-181163] | 30 | 15
CC1(NC(=O)[C@@H]2CC2(F)F)CCN(c2nc(Nc3cnn(C4CCNCC4)c3)ncc2Cl)CC1 | 1.24 | 2.76
CN1CCN(c2ccc(Nc3ncc(Cl)c(CN4CCC(C)(NC(=O)[C@@H]5CC5(F)F)CC4)n3)cc2)CC1 [TDM-181182, (S)-N-(1-((5-chloro-2-((4-(4-methylpiperazin-1-yl)phenyl)amino)pyrimidin-4-yl)methyl)-4-methylpiperidin-4-yl)-2,2-difluorocyclopropane-1-carboxamide] | 679 | 
CN1CCN(c2ccc(Nc3nccc(N4CCC(C)(NC(=O)[C@@H]5CC5(F)F)CC4)n3)cc2)CC1 [TDM-181164, (S)-2,2-Difluoro-N-(4-methyl-1-(2-((4-(4-methylpiperazin-1-yl)phenyl)amino)pyrimidin-4-yl)piperidin-4-yl)cyclopropane-1-carboxamide] | 6 | 15
CN1CCN(c2ccc(Nc3ncc(Cl)c(CN4CCC(C)(NS(=O)(=O)C5CC5)CC4)n3)cc2)CC1 [TDM-181183, N-(1-((5-chloro-2-((4-(4-methylpiperazin-1-yl)phenyl)amino)pyrimidin-4-yl)methyl)-4-methylpiperidin-4-yl)cyclopropanesulfonamide] | 69 | 
CC1(NS(=O)(=O)C2CC2)CCN(c2ccnc(Nc3cnn(C4CCNCC4)c3)n2)CC1 [TDM-181137] | 71 | 29
